Laboratory results as given in PMC6433685, “Histone deacetylase inhibitor LMK235 attenuates vascular constriction and aortic remodelling in hypertension” (Journal of Cellular and Molecular Medicine, 2019).

Key:
[1] = molecular target: T1, HDAC2 (Homo sapiens, UniProt Q92769); experiment: HDAC2 fluorogenic enzyme assay kit (BPS Bioscience), cell-free; assay type: biochemical; details: 0.001-10 μmol/L inhibitor
T1 construct: purchased BPS Bioscience 50062

[2] = tested on: cyclin D1, E2F3, p21, CaMKIIα mRNA; experiment: Cell cycle gene and CaMKIIα mRNA (qRT-PCR) in aortas of angiotensin II-infusion mice; assay type: in vivo; details: Ang II-infusion mice
Procedure: All animal procedures were approved by the Animal Experimental Committee of Chonnam National University Medical School (CNU IACUC‐H‐2014‐47) and carried out in accordance with the Guide for the Care and Use of Laboratory Animals (US National Institutes of Health Publications, 8th edition, 2011). CD‐1 mice (8 weeks old, 30‐35 g) were used in this study. Hypertension was induced by angiotensin II (Ang II, 1.3 mg/kg/day) infusion using 14‐day micro‐osmotic pumps (Alzet, model 1002; infusion rate of 0.25 μL/h) or saline alone. Ang II osmotic pumps were implanted subcutaneously after the injection of ketamine (120 mg/kg) and xylazine (6.2 mg/kg). One week after Ang II infusion, mice were administered LMK235 (1 or 3 mg/kg/day) or vehicle (dimethylsulphoxide [DMSO]) via intraperitoneal injection for 7 days. Mice were divided into three groups (n = 10‐12 per group): sham + vehicle, Ang II + vehicle, and Ang II + LMK235.
Total RNA from aortic tissue was isolated with TRIzol reagent (Invitrogen Life Technologies), and 1 μg of RNA was used for the reverse transcription reaction with TOPscript RT DryMIX (Enzynomics, South Korea). Quantification of mRNA levels was performed with the SYBR Green PCR kit (Enzynomics, South Korea).

T1 sequence (Q92769 whole entry): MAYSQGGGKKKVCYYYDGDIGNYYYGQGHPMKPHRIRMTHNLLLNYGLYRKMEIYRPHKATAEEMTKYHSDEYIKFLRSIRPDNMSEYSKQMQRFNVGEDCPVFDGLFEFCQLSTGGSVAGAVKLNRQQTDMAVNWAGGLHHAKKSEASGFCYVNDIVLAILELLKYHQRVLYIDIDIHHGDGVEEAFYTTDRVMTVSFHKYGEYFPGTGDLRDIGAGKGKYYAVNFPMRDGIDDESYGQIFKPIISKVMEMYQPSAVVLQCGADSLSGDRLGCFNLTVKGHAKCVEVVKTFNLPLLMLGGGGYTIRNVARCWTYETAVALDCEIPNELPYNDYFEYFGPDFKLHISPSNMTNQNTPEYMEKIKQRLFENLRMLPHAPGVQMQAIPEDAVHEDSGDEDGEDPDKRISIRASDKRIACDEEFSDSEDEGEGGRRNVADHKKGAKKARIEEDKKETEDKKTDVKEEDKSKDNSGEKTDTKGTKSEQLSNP

## Cc1cc(C)cc(C(=O)NOCCCCCC(=O)NO)c1 [LMK235]
[1]
  IC50: 55 nM
[2]
  CaMKIIα mRNA levels in aorta: significantly reduced
  E2F3 mRNA levels in aorta: significantly suppressed
  cyclin D1 mRNA levels in aorta: significantly suppressed
  p21 transcript levels in aorta: restored the repressed p21 expression
